The text below walks through data of patent publication EP4692094A1 (Beijing Konruns Pharmaceutical Co., Ltd., priority 2023, dated 2024).

The IC50 is the concentration needed to halve the response being measured. A lower IC50 goes with greater potency.

In the experiment the target is T1, KAT6A (Homo sapiens, UniProt Q92794).
T1 construct: purchased active motife (Active Motif) 81223
T1 sequence (Q92794 whole entry): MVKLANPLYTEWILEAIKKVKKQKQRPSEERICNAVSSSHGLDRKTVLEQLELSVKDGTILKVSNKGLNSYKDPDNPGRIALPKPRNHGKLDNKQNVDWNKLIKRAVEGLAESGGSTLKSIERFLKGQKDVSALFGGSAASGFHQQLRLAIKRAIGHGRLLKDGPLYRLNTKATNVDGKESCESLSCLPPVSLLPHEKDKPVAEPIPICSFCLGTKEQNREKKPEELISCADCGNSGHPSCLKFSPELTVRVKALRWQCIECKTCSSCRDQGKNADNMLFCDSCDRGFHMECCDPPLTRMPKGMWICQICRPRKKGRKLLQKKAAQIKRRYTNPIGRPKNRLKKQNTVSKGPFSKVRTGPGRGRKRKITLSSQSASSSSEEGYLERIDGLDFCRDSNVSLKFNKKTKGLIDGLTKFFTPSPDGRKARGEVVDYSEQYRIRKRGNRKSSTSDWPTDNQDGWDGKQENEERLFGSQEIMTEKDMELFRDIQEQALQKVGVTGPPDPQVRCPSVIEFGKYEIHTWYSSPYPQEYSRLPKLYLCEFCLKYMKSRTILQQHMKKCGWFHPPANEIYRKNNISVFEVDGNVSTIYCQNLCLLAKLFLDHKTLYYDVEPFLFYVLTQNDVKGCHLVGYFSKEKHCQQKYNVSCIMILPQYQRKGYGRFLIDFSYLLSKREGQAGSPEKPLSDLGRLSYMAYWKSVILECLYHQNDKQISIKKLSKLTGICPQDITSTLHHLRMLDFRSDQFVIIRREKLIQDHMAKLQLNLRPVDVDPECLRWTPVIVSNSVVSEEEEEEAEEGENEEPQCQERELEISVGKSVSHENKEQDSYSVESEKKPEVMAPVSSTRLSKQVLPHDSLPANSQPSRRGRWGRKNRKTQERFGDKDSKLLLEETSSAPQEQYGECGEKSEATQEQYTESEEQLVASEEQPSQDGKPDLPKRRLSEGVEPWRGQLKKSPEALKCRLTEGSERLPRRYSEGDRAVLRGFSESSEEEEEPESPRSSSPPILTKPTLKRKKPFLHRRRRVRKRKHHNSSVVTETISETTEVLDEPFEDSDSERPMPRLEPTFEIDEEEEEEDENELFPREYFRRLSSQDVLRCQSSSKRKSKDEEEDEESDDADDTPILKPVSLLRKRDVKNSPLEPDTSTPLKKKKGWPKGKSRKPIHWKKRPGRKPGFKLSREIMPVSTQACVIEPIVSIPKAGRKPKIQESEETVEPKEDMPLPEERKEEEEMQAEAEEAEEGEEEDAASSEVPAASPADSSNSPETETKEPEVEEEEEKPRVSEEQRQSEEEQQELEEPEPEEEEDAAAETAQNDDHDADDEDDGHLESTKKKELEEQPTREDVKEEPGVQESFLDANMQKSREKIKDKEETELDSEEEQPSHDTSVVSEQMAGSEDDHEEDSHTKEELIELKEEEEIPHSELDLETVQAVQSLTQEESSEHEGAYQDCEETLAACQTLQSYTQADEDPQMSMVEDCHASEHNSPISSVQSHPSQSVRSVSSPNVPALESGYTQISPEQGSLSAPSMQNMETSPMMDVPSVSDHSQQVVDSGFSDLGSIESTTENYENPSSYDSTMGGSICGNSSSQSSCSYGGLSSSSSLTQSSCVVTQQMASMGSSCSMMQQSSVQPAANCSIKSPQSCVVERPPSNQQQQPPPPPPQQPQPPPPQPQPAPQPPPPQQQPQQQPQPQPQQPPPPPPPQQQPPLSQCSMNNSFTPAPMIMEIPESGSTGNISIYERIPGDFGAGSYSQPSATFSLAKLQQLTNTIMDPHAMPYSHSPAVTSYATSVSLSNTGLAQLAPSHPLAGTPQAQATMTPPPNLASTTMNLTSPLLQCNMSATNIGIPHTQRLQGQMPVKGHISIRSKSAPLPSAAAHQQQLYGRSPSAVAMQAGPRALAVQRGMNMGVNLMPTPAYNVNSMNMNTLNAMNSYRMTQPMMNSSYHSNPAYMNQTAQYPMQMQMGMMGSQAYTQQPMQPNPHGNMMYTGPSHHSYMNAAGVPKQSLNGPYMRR
The experiment is described as follows: Enzymatic activity assay for KAT6A acetyltransferase (TR-FRET, acetylation of histone substrate H3). Type of experiment: biochemical. The method, then: The acetylation effect of KAT6A on histone substrate H3 was determined using the TR-FRET (time-resolved fluorescence resonance energy transfer) method.
• 1) The compounds prepared in the examples of the present disclosure were each dissolved in dimethylsulfoxide to give solutions at a concentration of 10 mmol/L, and then the solutions were diluted to 0.2 mmol/L, i.e., 1 µL of the compound was added to 49 µL of DMSO, and 3-fold dilution was performed to give 10 concentrations. • 2) 50 nL of the test compounds (example compounds) were transferred to 384 reaction plates using Echo, two replicates for each compound, and the plates were centrifuged at a rotation speed of 1000 rpm for 1 min, the final concentration of dimethylsulfoxide (DMSO) being 0.5%. • 3) 2.5 µL of the reaction mixtures obtained in step 2 was added to the 384 reaction plates in step 2), and the plates were centrifuged at 1000 rpm for 1 min and incubated at 25 °C for 10 min. • 4) 2.5 µL of Bio-H3&AcCOA (acetyl-CoA) reaction solution was added to the 384 reaction plates in step 3), and the plates were centrifuged at a rotation speed of 1000 rpm for 1 min and incubated at 25 °C for 90 min. • 5) 5 µL of Eu-Ab& Ulight-SA detection solution was added to the 384 reaction plates in step 4), and the plates were centrifuged at 1000 rpm for 1 min and incubated at 25 °C for 60 min. • 6) The HTRF […] signals were read using a BMG high-throughput drug-screening multi-mode microplate reader.
The acetylation level of the histone H3 was analyzed by the GraphPad Prism 8 software. The reading of the negative control (0.5% DMSO wells) was set as 0% inhibition rate, and the reading of the positive control (wells with the highest concentration of the control compound) was set as 100% inhibition rate. The inhibition rates were calculated, and then IC50 values (half maximal inhibitory concentration) of test compounds were obtained by using a software nonlinear fitting formula; [formula]
Datapositive control: mean of positive control well values; Datanegative control: mean of negative control well values. Table 3. Enzymatic inhibitory activity of example compounds
On the technique in general: TR-FRET usually uses a lanthanide donor and a delayed reading to cut background.
`COc1ccc(S(=O)(=O)Nc2noc3cc(Cn4cccn4)nc(OC)c23)c2c1CCO2` [Example 72, N-(6-((1H-Pyrazol-1-yl)methyl)-4-methoxyisoxazolo[4,5-c]pyridin-3-yl)-4-methoxy-2,3-dihydrobenzofuran-7-sulfonamide] returned an IC50 of 5.1 nM. In the case of `COc1cc2c(cc1S(=O)(=O)Nc1noc3cc(Cn4cccn4)nc(OC)c13)OCC2(C)C` [Example 101, N-(6-((1H-pyrazol-1-yl)methyl)-4-methoxyisoxazolo[4,5-c]pyridin-3-yl)-5-methoxy-3,3-dimethyl-2H-benzofuran-6-sulfonamide] it was 2.04 nM; in that of `COc1cc2c(c(OC)c1S(=O)(=O)Nc1noc3cc(Cn4cccn4)nc(OC)c13)CCO2` [Example 97, N-(6-((1H-pyrazol-1-yl)methyl)-4-methoxyisoxazolo[4,5-c]pyridin-3-yl)-4,6-dimethoxy-2,3-dihydrobenzofuran-5-sulfonamide], 0.95 nM; in that of `COc1nc(Cn2cccn2)cc2onc(NS(=O)(=O)c3ccc4oc(C)nc4c3)c12` [Example 52, N-(6-((1H-Pyrazol-1-yl)methyl)-4-methoxyisoxazolo[4,5-c]pyridin-3-yl)-2-methylbenzo[d]oxazole-5-sulfonamide], 34.3 nM. Next, `COc1cc2occc2cc1S(=O)(=O)Nc1noc2cc(Cn3cccn3)nc(OC)c12` [Example 108, N-(6-((1H-pyrazol-1-yl)methyl)-4-methoxyisoxazolo[4,5-c]pyridin-3-yl)-6-methoxybenzofuran-5-sulfonamide]: 1.26 nM. In the case of `COc1nc(Cn2cccn2)cc2onc(NS(=O)(=O)c3cccc4cccnc34)c12` [Example 46] it was 1.67 nM; in that of `COc1ccc2c(c1S(=O)(=O)Nc1noc3cc(Cn4cccn4)nc(OC)c13)OC(C)(C)O2` [Example 74, N-(6-((1H-Pyrazol-1-yl)methyl)-4-methoxyisoxazolo[4,5-c]pyridin-3-yl)-5-methoxy-2,2-dimethyl-1,3-benzodioxolane-4-sulfonamide], 1.77 nM; in that of `COc1nc(C(F)(F)n2cccn2)cc2onc(NS(=O)(=O)c3cccc4c3OCC4)c12` [Example 17, N-(6-(Difluoro(1H-pyrazol-1-yl)methyl)-4-methoxyisoxazolo[4,5-c]pyridin-3-yl)-2,3-dihydrobenzofuran-7-sulfonamide], 8.67 nM. In turn, `COc1nc(Cn2cccn2)cc2onc(NS(=O)(=O)c3cccc4c3OC(F)(F)O4)c12` [Example 51, N-(6-((1H-Pyrazol-1-yl)methyl)-4-methoxyisoxazolo[4,5-c]pyridin-3-yl)-2,2-difluorobenzodioxole-4-sulfonamide] returned an IC50 of 18.2 nM. Next, `COc1ccc2ccn(C)c2c1S(=O)(=O)Nc1noc2cc(Cn3cccn3)nc(OC)c12` [Example 56, N-(6-((1H-Pyrazol-1-yl)methyl)-4-methoxyisoxazolo[4,5-c]pyridin-3-yl)-6-methoxy-1-methyl-1H-indole-7-sulfonamide]: 16.3 nM. In the case of `COc1nc(C(F)n2cccn2)cc2onc(NS(=O)(=O)c3cccc4c3OCC4)c12` (centres unmarked) [Example 18, N-(6-(Fluoro(1H-pyrazol-1-yl)methyl)-4-methoxyisoxazolo[4,5-c]pyridin-3-yl)-2,3-dihydrobenzofuran-7-sulfonamide] it was 7.23 nM; in that of `COc1cc2c(ccn2C)cc1S(=O)(=O)Nc1noc2cc(Cn3cccn3)nc(OC)c12` [Example 69, N-(6-((1H-Pyrazol-1-yl)methyl)-4-methoxyisoxazolo[4,5-c]pyridin-3-yl)-6-methoxy-1-methyl-1H-indole-5-sulfonamide], 0.87 nM; in that of `COc1nc(Cn2cccn2)cc2onc(NS(=O)(=O)c3ccc4c(c3)CCCO4)c12` [Example 50, N-(6-((1H-Pyrazol-1-yl)methyl)-4-methoxyisoxazolo[4,5-c]pyridin-3-yl)-3,4-dihydro-1H-benzopyran-6-sulfonamide], 8.67 nM. Next, `[2H]C1Oc2cc(S(=O)(=O)Nc3noc4cc(Cn5cccn5)nc(OC)c34)c(OC)cc2C1[2H]` (centres unmarked) [Example 103, N-(6-((1H-pyrazol-1-yl)methyl)-4-methoxyisoxazolo[4,5-c]pyridin-3-yl)-5-methoxy-2,3-dihydrobenzofuran-6-sulfonamide-2,3-d2]: 1.86 nM; `COc1cc2c(cc1S(=O)(=O)Nc1noc3cc(Cn4cccn4)nc(OC)c13)CCC2` [Example 70, N-(6-((1H-Pyrazol-1-yl)methyl)-4-methoxyisoxazolo[4,5-c]pyridin-3-yl)-6-methoxy-2,3-dihydro-1H-indene-5-sulfonamide]: 0.85 nM. `COc1ccc2c(c1S(=O)(=O)Nc1noc3cc(Cn4cccn4)nc(OC)c13)CCC2` [Example 77, N-(6-((1H-Pyrazol-1-yl)methyl)-4-methoxyisoxazolo[4,5-c]pyridin-3-yl)-5-methoxy-2,3-dihydro-1H-indene-4-sulfonamide] came in with an IC50 of 1.91 nM.

`COc1nc(Cn2cccn2)cc2onc(NS(=O)(=O)c3ccc4ncsc4c3)c12` [Example 55, N-(6-((1H-Pyrazol-1-yl)methyl)-4-methoxyisoxazolo[4,5-c]pyridin-3-yl)benzothiazole-6-sulfonamide] came in with an IC50 of 8.79 nM.

Compound `COc1c(S(=O)(=O)Nc2noc3cc(Cn4cccn4)nc(OC)c23)ccc2ccoc12` [Example 86, N-(6-((1H-Pyrazol-1-yl)methyl)-4-methoxyisoxazolo[4,5-c]pyridin-3-yl)-7-methoxybenzofuran-6-sulfonamide] registered an IC50 of 10 nM. Next, `COc1nc(Cn2cccn2)cc2onc(NS(=O)(=O)c3cccc4c3CCC4)c12` [Example 26, N-(6-((1H-Pyrazol-1-yl)methyl)-4-methoxyisoxazolo[4,5-c]pyridin-3-yl)-2,3-dihydro-1H-indene-4-sulfonamide]: 21.8 nM; `COc1nc(Cn2cccn2)cc2onc(NS(=O)(=O)c3cc(C#N)cc4c3OCCC4)c12` [Example 107, N-(6-((1H-pyrazol-1-yl)methyl)-4-methoxyisoxazolo[4,5-c]pyridin-3-yl)-6-cyano-3,4-dihydro-1H-benzopyran-8-sulfonamide]: 5.86 nM; `COc1cc2c(cc1S(=O)(=O)Nc1noc3cc(Cn4nccn4)nc(OC)c13)CCCC2` [Example 34, N-(6-((2H-1,2,3-Triazol-2-yl)methyl)-4-methoxyisoxazolo[4,5-c]pyridin-3-yl)-3-methoxy-5,6,7,8-tetrahydronaphthalene-2-sulfonamide]: 12.6 nM. In the case of `COc1cc2c(cc1S(=O)(=O)Nc1noc3cc(C(F)(F)n4cccn4)nc(OC)c13)CCCC2` [Example 91, N-(6-(Difluoro(1H-pyrazol-1-yl)methyl)-4-methoxyisoxazolo[4,5-c]pyridin-3-yl)-3-methoxy-5,6,7,8-tetrahydronaphthalene-2-sulfonamide] it was 17.6 nM; in that of `COc1c(S(=O)(=O)Nc2noc3cc(Cn4cccn4)nc(OC)c23)ccc2c1OCO2` [Example 87, N-(6-((1H-Pyrazol-1-yl)methyl)-4-methoxyisoxazolo[4,5-c]pyridin-3-yl)-4-methoxy-1,3-benzodioxole-5-sulfonamide], 2.67 nM. In the case of `COc1nc(Cn2cccn2)cc2onc(NS(=O)(=O)c3ccc(C#CC4CC4)c4ccoc34)c12` [Example 90, N-(6-((1H-Pyrazol-1-yl)methyl)-4-methoxyisoxazolo[4,5-c]pyridin-3-yl)-4-(cyclopropylethynyl)benzofuran-7-sulfonamide] it was 7.18 nM; in that of `COc1nc(Cn2cccn2)cc2onc(NS(=O)(=O)c3ccc4occc4c3)c12` [Example 53, N-(6-((1H-Pyrazol-1-yl)methyl)-4-methoxyisoxazolo[4,5-c]pyridin-3-yl)benzofuran-5-sulfonamide], 4.56 nM; in that of `COc1nc(Cn2cccn2)cc2onc(NS(=O)(=O)c3ccc4c(c3)CN(C)C(=O)O4)c12` [Example 54, N-(6-((1H-Pyrazol-1-yl)methyl)-4-methoxyisoxazolo[4,5-c]pyridin-3-yl)-3-methyl-2-oxo-3,4-dihydro-2H-benzoxazine-6-sulfonamide], 110 nM. Turning to `COc1ccc(S(=O)(=O)Nc2noc3cc(Cn4cccn4)nc(OC)c23)c2occc12` [Example 64, N-(6-((1H-Pyrazol-1-yl)methyl)-4-methoxyisoxazolo[4,5-c]pyridin-3-yl)-4-methoxybenzofuran-7-sulfonamide], inhibition was half-maximal at 8.85 nM (IC50). Next, `COc1nc(Cn2cccn2)cc2onc(NS(=O)(=O)c3cccc4c3OCCC4)c12` [Example 7, N-(6-((1H-Pyrazol-1-yl)methyl)-4-methoxyisoxazolo[4,5-c]pyridin-3-yl)-3,4-dihydro-1H-benzopyran-8-sulfonamide]: 5.68 nM. In the case of `COc1ccc2ccoc2c1S(=O)(=O)Nc1noc2cc(Cn3cc(F)cn3)nc(OC)c12` [Example 68, N-(6-((4-Fluoro-1H-pyrazol-1-yl)methyl)-4-methoxyisoxazolo[4,5-c]pyridin-3-yl)-6-methoxvbenzofuran-7-sulfonamide] it was 2.41 nM.
